According to ChEMBL document CHEMBL2401638, “Design and synthesis of biquinolone-isoniazid hybrids as a new class of antitubercular and antimicrobial agents” (Eur J Med Chem, 2013):
Converted amounts (≈) assume the structure as drawn.

How the values were obtained:
[1] = Cytotoxicity in Artemia cysts assessed as mortality of nauplii at 30 ug/mL after 24 hrs relative to control; type: organism-based; details: in vivo
[2] = Cytotoxicity in Artemia cysts assessed as mortality of nauplii at 5 ug/mL after 24 hrs relative to control; type: organism-based; details: in vivo
[3] = Cytotoxicity in Artemia cysts assessed as mortality of nauplii at 10 ug/mL after 24 hrs relative to control; type: organism-based; details: in vivo
Pseudomonas aeruginosa = assay: Antibacterial activity against Pseudomonas aeruginosa MTCC 1688 assessed as growth inhibition by broth microdilution method; type: functional
Salmonella typhi = assay: Antibacterial activity against Salmonella typhi MTCC 98 assessed as growth inhibition by broth microdilution method; type: functional, Salmonella enterica subsp. enterica serovar Typhi; details: Salmonella enterica
Clostridium tetani = assay: Antibacterial activity against Clostridium tetani MTCC 449 assessed as growth inhibition by broth microdilution method; type: functional
[4] = Cytotoxicity in Artemia cysts assessed as mortality of nauplii at 20 ug/mL after 24 hrs relative to control; type: organism-based; details: in vivo
Candida albicans = assay: Antifungal activity against Candida albicans MTCC 227 assessed as growth inhibition by broth microdilution method; type: functional
[5] = tested on: Mycobacterium tuberculosis; assay: Antituberculosis activity against Mycobacterium tuberculosis H37Rv assessed as growth inhibition after 12 to 28 days by Lowenstein-Jensen method; type: functional
Trichophyton rubrum = assay: Antifungal activity against Trichophyton rubrum MTCC 296 assessed as growth inhibition by broth microdilution method; type: functional
Staphylococcus aureus = assay: Antibacterial activity against Staphylococcus aureus MTCC 96 assessed as growth inhibition by broth microdilution method; type: functional
[6] = Cytotoxicity in Artemia cysts assessed as mortality of nauplii at 50 ug/mL after 24 hrs relative to control; type: organism-based; details: in vivo
[7] = Cytotoxicity in Artemia cysts assessed as mortality of nauplii at 40 ug/mL after 24 hrs relative to control; type: organism-based; details: in vivo
[8] = Cytotoxicity in Artemia cysts assessed as mortality of nauplii after 24 hrs; type: organism-based; details: in vivo
Escherichia coli = assay: Antibacterial activity against Escherichia coli MTCC 443 assessed as growth inhibition by broth microdilution method; type: functional
[9] = tested on: Mycobacterium tuberculosis; assay: Antituberculosis activity against Mycobacterium tuberculosis H37Rv assessed as growth inhibition at 250 ug/ml after 12 to 28 days by Lowenstein-Jensen method relative to control; type: functional; details: read-out: GI
Bacillus subtilis = assay: Antibacterial activity against Bacillus subtilis MTCC 441 assessed as growth inhibition by broth microdilution method; type: functional

| SMILES | mortality at 24 h, 30 ug/mL [1] [%] | mortality at 24 h, 5 ug/mL [2] [%] | mortality at 24 h, 10 ug/mL [3] [%] | MIC (Pseudomonas aeruginosa) [µg/mL] | MIC (Salmonella typhi) [µg/mL] | MIC (Clostridium tetani) [µg/mL] | mortality at 24 h, 20 ug/mL [4] [%] | MIC (Candida albicans) [µg/mL] | MIC [5] [µg/mL] | MIC (Trichophyton rubrum) [µg/mL] | MIC (Staphylococcus aureus) [µg/mL] | mortality at 24 h, 50 ug/mL [6] [%] | mortality at 24 h, 40 ug/mL [7] [%] | LC50 at 24 h [8] [µg/mL] | MIC (Escherichia coli) [µg/mL] | inhibition of growth at 250 µg/mL [9] [%] | MIC (Bacillus subtilis) [µg/mL] |
| --- | --- | --- | --- | --- | --- | --- | --- | --- | --- | --- | --- | --- | --- | --- | --- | --- | --- |
| C=CCn1c(=O)c(C2C(C(=O)OCC)=C(N)N(NC(=O)c3ccncc3)C3=C2C(=O)CC(C)(C)C3)cc2cc(C)ccc21 (stereo not given) | 40 | 0 | 20 | 500 | 125 | 125 | 30 | 500 | 62.5 (≈ 107 µM) | 1000 | 125 | 80 | 60 | 28.6 (≈ 49.1 µM) | 62.5 | 94 | 500 |
| C=CCn1c(=O)c(C2C(C(=O)OC(C)C)=C(N)N(NC(=O)c3ccncc3)C3=C2C(=O)CC(C)(C)C3)cc2cc(Cl)ccc21 (stereo not given) | 50 | 0 | 10 | 500 | 125 | 125 | 30 | 1000 | 62.5 (≈ 101 µM) | 500 | 125 | 90 | 70 | 24.5 (≈ 39.7 µM) | 200 | 94 | 500 |
| C=CCn1c(=O)c(C2C(C(=O)OC)=C(N)N(NC(=O)c3ccncc3)C3=C2C(=O)CCC3)cc2cc(OC)ccc21 (stereo not given) | 60 | 10 | 20 | 125 | 125 | 125 | 40 | 1000 | 50 (≈ 90 µM) | > 1000 | 200 | 90 | 80 | 19.7 (≈ 35.4 µM) | 100 | 98 | 50 |
| C=CCn1c(=O)c(C2C(C(=O)OC)=C(N)N(NC(=O)c3ccncc3)C3=C2C(=O)CC(C)(C)C3)cc2cc(C)ccc21 (stereo not given) | 40 | 0 | 10 | 250 | 100 | 500 | 20 | 500 | 25 (≈ 44 µM) | > 1000 | 500 | 70 | 60 | 34.6 (≈ 60.9 µM) | 125 | 99 | 200 |
| C=CCn1c(=O)c(C2C(C(=O)OC(C)C)=C(N)N(NC(=O)c3ccncc3)C3=C2C(=O)CC(C)(C)C3)cc2cc(C)ccc21 (stereo not given) | 40 | 0 | 10 | 200 | 200 | 500 | 30 | 500 | 12.5 (≈ 21 µM) | 1000 | 500 | 70 | 50 | 35.4 (≈ 59.4 µM) | 125 | 99 | 500 |
